According to ChEMBL document CHEMBL4507291 (2021):

What was measured:
[1] = target: Platelet-derived growth factor receptor alpha (Homo sapiens) (UniProt P16234)
[2] = target: Calcium/calmodulin-dependent protein kinase type II subunit delta (Homo sapiens) (UniProt Q13557)
[3] = target: Ribosomal protein S6 kinase alpha-5 (Homo sapiens) (UniProt O75582)
[4] = target: T1, Mitogen-activated protein kinase kinase kinase 7 (Homo sapiens) (UniProt O43318)
T1 sequence (whole entry): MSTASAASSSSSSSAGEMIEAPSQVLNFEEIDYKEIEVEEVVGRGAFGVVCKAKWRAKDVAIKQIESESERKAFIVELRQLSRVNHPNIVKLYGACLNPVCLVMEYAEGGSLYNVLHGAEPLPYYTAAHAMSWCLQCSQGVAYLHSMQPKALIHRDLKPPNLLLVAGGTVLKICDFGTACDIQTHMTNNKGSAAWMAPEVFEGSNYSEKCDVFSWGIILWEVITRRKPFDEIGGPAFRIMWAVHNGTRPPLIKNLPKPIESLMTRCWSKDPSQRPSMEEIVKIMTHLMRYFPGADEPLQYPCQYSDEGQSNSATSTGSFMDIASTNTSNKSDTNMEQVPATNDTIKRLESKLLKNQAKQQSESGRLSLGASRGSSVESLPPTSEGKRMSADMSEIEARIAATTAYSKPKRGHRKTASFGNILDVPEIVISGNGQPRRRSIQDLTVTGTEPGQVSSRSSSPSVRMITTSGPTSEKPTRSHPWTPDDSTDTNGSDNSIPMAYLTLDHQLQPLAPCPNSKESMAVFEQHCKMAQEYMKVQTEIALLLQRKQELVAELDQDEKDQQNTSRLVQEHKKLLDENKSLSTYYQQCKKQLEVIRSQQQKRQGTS

[5] = system: Tyrosine-protein kinase ABL1 (Homo sapiens), P00519 [Q252H]
[6] = target: Serine/threonine-protein kinase pim-3 (Homo sapiens) (UniProt Q86V86)
[7] = target: Non-receptor tyrosine-protein kinase TYK2 (Homo sapiens) (UniProt P29597)
[8] = target: Dual specificity mitogen-activated protein kinase kinase 7 (Homo sapiens) (UniProt O14733)
[9] = target: T2, Rhodopsin kinase GRK7 (Homo sapiens) (UniProt Q8WTQ7)
T2 sequence (whole entry): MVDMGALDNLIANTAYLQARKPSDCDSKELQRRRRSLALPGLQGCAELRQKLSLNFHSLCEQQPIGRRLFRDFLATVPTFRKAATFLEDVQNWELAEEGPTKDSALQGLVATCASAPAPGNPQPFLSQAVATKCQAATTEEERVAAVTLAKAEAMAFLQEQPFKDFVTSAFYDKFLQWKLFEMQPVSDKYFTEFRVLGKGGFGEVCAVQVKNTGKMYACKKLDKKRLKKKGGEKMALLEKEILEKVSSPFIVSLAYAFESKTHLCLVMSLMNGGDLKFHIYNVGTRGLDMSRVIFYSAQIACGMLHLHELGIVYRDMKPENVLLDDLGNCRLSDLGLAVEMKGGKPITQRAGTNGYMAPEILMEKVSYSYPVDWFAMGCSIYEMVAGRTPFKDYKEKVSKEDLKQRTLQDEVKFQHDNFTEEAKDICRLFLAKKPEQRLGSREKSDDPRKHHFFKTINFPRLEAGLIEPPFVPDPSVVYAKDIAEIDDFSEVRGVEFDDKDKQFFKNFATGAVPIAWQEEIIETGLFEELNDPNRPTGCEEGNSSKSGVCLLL

[10] = target: T3, Serine/threonine-protein kinase DCLK2 (Homo sapiens) (UniProt Q8N568)
T3 sequence (whole entry): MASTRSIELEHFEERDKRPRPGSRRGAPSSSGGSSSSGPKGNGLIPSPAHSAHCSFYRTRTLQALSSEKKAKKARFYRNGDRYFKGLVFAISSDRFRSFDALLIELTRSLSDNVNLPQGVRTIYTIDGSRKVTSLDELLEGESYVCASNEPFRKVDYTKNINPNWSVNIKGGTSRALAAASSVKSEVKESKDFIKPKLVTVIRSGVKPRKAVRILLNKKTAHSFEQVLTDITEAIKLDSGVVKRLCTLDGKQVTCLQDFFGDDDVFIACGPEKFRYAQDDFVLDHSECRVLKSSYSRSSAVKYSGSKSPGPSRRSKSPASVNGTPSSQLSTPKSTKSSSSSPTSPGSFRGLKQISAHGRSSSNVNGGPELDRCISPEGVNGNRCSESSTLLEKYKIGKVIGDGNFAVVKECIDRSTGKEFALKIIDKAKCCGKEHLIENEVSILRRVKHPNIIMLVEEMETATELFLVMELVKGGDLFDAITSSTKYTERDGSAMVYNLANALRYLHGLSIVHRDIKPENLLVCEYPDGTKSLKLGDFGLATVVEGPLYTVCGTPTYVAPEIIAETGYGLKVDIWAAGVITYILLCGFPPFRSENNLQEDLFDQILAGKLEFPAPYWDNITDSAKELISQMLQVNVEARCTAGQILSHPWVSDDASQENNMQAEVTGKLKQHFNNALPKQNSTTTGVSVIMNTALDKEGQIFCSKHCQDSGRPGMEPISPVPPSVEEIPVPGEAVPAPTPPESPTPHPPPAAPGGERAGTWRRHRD

[11] = Compound concentration 1000.0 nM
[12] = Compound concentration 100.0 nM

Measured: residual activity

Chain of Platelet-derived growth factor receptor alpha (Homo sapiens) (P16234 whole entry): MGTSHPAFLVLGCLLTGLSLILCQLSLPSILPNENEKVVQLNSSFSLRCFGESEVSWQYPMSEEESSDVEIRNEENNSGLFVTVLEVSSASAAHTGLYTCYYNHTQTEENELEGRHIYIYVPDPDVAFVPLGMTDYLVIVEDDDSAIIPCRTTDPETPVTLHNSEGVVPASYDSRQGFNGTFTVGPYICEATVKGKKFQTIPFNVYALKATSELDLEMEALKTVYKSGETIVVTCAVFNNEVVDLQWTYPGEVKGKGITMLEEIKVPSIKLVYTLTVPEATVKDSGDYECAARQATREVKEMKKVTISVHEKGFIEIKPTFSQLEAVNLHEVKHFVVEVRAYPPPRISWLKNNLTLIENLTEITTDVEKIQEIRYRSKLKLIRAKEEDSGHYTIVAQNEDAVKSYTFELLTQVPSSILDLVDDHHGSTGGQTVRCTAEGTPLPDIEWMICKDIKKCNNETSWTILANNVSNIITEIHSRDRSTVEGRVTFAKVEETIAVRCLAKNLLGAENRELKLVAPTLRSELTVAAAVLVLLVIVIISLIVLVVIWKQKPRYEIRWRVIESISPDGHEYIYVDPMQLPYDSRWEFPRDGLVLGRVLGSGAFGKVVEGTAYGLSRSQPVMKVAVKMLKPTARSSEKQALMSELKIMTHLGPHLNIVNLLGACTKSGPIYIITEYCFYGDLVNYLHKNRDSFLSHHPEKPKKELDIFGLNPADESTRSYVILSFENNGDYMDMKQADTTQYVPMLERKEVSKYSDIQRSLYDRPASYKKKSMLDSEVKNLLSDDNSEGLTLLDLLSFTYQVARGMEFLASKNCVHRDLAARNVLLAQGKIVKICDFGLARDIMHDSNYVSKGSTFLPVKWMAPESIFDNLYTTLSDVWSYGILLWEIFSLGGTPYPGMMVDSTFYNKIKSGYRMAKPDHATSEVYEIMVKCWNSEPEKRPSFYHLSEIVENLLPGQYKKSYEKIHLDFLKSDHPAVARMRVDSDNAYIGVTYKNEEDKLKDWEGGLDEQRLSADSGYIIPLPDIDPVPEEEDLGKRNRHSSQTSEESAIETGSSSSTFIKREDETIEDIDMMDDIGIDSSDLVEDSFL
Chain of Dual specificity mitogen-activated protein kinase kinase 7 (Homo sapiens) (O14733 whole entry): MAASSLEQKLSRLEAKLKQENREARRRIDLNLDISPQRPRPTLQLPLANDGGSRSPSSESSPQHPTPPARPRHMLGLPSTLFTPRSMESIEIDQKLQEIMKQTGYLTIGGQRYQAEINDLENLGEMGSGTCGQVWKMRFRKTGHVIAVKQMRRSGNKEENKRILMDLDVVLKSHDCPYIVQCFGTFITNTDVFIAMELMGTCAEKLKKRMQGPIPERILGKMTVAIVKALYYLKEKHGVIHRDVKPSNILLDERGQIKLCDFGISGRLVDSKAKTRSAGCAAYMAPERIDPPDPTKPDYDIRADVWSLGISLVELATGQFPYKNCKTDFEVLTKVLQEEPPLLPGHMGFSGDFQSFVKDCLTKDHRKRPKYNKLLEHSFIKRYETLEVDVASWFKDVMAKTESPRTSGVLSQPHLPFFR
Chain of Calcium/calmodulin-dependent protein kinase type II subunit delta (Homo sapiens) (Q13557 whole entry): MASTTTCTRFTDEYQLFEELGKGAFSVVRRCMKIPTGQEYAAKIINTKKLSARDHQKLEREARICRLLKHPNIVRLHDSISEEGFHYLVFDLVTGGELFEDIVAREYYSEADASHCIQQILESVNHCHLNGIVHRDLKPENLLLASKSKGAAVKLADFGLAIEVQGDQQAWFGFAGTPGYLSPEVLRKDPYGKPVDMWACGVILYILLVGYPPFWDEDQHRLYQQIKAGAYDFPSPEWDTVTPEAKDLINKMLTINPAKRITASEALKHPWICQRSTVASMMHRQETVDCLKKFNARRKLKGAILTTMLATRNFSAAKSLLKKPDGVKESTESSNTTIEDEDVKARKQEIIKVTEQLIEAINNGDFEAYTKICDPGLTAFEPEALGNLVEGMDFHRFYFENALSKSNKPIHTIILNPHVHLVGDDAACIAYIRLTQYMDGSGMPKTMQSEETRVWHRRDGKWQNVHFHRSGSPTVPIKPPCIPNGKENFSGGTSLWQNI
Chain of Non-receptor tyrosine-protein kinase TYK2 (Homo sapiens) (P29597 whole entry): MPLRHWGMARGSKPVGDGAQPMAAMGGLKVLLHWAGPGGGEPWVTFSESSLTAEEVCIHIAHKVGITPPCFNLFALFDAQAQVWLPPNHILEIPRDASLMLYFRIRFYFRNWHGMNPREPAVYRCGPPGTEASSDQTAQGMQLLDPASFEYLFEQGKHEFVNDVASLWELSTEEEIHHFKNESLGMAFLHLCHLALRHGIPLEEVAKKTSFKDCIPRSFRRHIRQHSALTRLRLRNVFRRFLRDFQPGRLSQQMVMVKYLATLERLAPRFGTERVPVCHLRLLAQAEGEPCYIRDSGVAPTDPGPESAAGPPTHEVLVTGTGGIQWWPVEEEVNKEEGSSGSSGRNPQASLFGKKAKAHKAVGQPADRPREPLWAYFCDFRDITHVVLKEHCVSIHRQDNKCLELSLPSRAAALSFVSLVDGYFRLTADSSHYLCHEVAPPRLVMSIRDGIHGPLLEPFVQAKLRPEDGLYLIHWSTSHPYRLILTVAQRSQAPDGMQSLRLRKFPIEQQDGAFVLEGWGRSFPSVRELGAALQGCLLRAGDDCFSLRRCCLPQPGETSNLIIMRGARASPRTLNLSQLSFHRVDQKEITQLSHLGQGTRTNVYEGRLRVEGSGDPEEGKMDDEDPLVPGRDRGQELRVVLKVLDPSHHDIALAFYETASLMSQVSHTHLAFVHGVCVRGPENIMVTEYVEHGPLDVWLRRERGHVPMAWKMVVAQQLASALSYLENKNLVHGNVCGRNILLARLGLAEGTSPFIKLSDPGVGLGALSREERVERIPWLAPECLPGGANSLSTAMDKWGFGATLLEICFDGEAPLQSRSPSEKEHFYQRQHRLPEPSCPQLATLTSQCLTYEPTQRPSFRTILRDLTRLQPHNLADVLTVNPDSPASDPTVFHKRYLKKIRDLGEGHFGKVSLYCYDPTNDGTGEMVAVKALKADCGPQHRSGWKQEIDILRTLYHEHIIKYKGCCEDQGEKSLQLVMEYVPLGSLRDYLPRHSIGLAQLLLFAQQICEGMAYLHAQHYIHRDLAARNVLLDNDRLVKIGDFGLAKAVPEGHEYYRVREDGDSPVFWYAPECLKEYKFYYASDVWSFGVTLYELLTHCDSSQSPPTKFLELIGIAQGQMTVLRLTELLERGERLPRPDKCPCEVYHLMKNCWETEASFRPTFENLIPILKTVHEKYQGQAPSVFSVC
Chain of Ribosomal protein S6 kinase alpha-5 (Homo sapiens) (O75582 whole entry, looked up): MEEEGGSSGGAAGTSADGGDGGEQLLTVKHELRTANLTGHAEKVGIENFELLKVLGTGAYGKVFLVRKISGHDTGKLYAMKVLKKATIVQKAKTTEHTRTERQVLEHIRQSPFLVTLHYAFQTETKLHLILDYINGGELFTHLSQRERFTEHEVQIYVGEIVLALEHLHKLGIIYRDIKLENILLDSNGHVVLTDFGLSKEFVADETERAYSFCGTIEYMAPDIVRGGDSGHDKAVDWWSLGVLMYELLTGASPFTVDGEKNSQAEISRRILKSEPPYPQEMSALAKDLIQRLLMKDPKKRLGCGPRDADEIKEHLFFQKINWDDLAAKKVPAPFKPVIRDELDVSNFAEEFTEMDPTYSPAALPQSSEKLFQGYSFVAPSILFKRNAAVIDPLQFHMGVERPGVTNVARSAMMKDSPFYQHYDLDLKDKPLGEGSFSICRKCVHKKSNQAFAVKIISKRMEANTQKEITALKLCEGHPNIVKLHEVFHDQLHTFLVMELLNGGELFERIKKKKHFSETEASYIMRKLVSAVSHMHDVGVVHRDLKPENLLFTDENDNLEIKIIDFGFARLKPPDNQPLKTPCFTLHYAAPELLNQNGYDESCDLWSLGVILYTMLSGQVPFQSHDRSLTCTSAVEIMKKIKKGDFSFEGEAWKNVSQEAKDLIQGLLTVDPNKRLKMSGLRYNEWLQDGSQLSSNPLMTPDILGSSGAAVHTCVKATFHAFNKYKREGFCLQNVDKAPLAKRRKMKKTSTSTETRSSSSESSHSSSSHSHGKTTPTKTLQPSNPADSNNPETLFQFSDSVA

C[C@@H]1CN(c2cc(-c3nn(C)c4ccc(OC5(C)CC5)cc34)ncn2)C[C@H](C)O1 [MLi-2-NC]
inactive: [1]; [11] 83% | [2]; [11] 88% | [3]; [11] 79% | [4]; [11] 89% | [5]; [11] 58% | [6]; [11] 92% | [7]; [11] 51% | [8]; [11] 74% | [9]; [11] 100% | [10]; [11] 100%

C[C@@H]1CN(c2cc(-c3n[nH]c4ccc(OC5(C)CC5)cc34)ncn2)C[C@H](C)O1 [MLi-2]
inactive: [1]; [12] 75% | [2]; [12] 100% | [3]; [12] 89% | [4]; [12] 70% | [5]; [12] 64% | [6]; [12] 100% | [7]; [12] 81% | [8]; [12] 77% | [9]; [12] 64% | [10]; [12] 89%
